Reference: ChEMBL document CHEMBL2074506, “Effects of ursodeoxycholic and cholic acid feeding on hepatocellular transporter expression in mouse liver” (Gastroenterology, 2001)

Columns and labels:
Assay type in all cases: functional, organism-based
[1] = target: T1, ATP-binding cassette sub-family C member 2 (Mus musculus, UniProt Q8VI47); assay: TP_TRANSPORTER: Western (protein level: increase to 350%) in vivo, liver of Him OF1 mouse
[2] = target: T2, ATP-dependent translocase ABCB1 (Mus musculus, UniProt P21447); assay: TP_TRANSPORTER: RT-PCR (mRNA level: 2 fold) in vivo, liver of Him OF1 mouse
[3] = target: T3, Solute carrier organic anion transporter family member 1A1 (Mus musculus, UniProt Q9QXZ6); assay: TP_TRANSPORTER: Western (protein level: reduction to 45% of control) in vivo, liver of Him OF1 mouse
T3 sequence (Q9QXZ6 whole entry): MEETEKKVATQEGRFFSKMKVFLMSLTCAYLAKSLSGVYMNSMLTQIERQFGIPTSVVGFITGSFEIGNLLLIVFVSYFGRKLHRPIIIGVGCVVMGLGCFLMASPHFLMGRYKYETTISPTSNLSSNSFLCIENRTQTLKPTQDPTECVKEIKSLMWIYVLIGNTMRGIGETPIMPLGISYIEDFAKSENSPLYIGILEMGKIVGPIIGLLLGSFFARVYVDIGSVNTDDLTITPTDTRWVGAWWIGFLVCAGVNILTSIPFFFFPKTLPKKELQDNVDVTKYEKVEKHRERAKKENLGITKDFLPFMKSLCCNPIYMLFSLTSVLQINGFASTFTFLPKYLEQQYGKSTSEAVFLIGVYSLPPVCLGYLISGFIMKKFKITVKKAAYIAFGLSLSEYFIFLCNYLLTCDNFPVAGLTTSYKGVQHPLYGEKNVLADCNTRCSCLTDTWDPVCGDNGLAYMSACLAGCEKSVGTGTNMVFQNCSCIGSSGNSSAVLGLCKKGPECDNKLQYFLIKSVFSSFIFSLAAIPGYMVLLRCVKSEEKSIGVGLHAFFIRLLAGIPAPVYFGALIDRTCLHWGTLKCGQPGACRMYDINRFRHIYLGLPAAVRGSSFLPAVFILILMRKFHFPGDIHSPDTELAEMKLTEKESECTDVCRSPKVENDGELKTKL

[4] = target: T1, ATP-binding cassette sub-family C member 2; assay: TP_TRANSPORTER: RT-PCR (mRNA level: 3 fold) in vivo, liver of Him OF1 mouse
[5] = target: T3, Solute carrier organic anion transporter family member 1A1; assay: TP_TRANSPORTER: RT-PCR (mRNA level: reduction to 72 % of control) in vivo, liver of Him OF1 mouse
[6] = target: T2, ATP-dependent translocase ABCB1; assay: TP_TRANSPORTER: Western (protein level: increase to 220%) in vivo, liver of Him OF1 mouse

T1 sequence (Q8VI47 whole entry): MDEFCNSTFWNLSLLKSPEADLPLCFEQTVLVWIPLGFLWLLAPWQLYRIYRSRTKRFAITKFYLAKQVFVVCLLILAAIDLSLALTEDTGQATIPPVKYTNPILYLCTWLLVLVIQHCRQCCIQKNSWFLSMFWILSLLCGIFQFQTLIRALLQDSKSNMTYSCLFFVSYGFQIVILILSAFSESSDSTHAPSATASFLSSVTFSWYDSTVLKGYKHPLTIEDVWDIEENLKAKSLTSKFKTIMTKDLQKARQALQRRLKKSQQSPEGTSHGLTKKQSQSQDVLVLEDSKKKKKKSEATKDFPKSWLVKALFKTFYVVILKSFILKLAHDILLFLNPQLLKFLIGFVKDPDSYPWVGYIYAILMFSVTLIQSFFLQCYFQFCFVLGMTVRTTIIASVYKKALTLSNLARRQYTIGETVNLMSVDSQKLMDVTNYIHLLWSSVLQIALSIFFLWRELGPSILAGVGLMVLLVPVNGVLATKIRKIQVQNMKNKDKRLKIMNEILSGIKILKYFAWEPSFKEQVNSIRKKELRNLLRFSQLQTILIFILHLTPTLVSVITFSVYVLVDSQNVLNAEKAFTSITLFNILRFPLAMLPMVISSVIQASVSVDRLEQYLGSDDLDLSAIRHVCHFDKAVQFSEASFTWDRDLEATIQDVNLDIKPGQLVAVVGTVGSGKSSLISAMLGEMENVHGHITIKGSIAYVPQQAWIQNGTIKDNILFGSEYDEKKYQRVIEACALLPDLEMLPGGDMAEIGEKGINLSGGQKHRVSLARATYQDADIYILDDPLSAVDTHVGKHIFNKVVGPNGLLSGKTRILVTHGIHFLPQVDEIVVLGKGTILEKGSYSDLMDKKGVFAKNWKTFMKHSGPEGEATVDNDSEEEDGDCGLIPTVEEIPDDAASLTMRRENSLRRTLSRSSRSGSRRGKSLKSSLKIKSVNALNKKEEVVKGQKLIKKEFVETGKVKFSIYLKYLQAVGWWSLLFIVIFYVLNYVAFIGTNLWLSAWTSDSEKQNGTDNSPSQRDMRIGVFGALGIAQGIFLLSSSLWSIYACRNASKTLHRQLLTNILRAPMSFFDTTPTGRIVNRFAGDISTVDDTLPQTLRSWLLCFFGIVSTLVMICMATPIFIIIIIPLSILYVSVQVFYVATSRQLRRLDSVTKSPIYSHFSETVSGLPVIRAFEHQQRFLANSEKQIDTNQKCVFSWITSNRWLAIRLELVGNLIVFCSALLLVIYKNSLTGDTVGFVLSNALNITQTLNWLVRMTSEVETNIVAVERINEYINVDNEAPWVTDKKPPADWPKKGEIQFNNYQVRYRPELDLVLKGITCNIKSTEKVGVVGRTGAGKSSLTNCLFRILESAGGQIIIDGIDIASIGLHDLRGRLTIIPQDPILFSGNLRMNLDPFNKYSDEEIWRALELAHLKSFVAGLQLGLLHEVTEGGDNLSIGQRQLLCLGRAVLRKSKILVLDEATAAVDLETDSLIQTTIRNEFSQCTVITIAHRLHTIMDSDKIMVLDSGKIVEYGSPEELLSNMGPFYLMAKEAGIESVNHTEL
T2 sequence (P21447 whole entry): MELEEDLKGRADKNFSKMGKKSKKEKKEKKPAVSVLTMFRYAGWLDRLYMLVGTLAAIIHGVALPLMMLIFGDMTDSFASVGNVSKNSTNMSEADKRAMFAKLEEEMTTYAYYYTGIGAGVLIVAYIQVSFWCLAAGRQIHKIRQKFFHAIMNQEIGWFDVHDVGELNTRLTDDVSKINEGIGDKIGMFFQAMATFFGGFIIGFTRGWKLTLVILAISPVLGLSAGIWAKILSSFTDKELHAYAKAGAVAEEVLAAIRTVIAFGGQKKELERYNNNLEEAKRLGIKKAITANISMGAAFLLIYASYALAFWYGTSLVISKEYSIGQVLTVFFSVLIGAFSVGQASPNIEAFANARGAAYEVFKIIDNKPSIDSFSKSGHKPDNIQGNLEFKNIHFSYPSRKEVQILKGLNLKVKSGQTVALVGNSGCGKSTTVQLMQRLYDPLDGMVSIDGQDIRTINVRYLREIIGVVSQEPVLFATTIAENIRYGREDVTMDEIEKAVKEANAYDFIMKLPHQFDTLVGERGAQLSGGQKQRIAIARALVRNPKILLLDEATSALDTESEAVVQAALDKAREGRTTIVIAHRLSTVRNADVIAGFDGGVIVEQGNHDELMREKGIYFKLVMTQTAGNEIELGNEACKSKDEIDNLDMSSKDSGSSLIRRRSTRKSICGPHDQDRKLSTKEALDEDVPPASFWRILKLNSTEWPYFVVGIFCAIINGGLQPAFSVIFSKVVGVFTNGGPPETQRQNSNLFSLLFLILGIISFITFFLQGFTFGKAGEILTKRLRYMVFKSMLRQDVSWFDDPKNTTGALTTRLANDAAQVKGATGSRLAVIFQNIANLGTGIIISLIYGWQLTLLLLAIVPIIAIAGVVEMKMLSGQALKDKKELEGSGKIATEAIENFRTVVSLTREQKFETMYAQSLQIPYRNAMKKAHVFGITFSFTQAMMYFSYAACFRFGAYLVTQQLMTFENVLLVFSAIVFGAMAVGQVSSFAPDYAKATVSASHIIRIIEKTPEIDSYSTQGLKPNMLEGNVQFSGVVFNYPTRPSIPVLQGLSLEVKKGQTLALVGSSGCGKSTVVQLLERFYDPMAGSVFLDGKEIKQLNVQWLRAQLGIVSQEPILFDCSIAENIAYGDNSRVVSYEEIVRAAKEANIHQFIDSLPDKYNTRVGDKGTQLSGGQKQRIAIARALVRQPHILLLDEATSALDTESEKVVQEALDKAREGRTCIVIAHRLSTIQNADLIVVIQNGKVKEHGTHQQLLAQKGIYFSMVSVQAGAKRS

SMILES: C[C@H](CCC(=O)O)[C@H]1CC[C@H]2[C@@H]3[C@@H](O)C[C@@H]4C[C@H](O)CC[C@]4(C)[C@H]3CC[C@]12C [URSODIOL]
- Activity [1]: inducer [+]
- Activity [2]: inducer [+]
- Activity [3]: inducer [Decrease]
- Activity [4]: inducer [+]
- Activity [5]: inducer [Decrease]
- Activity [6]: inducer [+]
